According to publication PMC10338423, “Synthesis and preclinical evaluation of a novel fluorine-18 labeled small-molecule PET radiotracer for imaging of CXCR3 receptor in mouse models of atherosclerosis” (EJNMMI Research, 2023):

Key:
CXCR3 = molecular target: T1, CXCR3 (Mus musculus, UniProt O88410); assay: PET/CT imaging, baseline and self-blocking, in ApoE KO mice on high-fat diet; assay type: in vivo
T1 construct: tissue Jackson Laboratory (mice); host or cells: In vivo: atherosclerotic abdominal aorta and brown adipose tissue of ApoE KO mice (high-fat diet) and C57BL/6 control mice (normal diet)
T1 sequence (O88410 1-367): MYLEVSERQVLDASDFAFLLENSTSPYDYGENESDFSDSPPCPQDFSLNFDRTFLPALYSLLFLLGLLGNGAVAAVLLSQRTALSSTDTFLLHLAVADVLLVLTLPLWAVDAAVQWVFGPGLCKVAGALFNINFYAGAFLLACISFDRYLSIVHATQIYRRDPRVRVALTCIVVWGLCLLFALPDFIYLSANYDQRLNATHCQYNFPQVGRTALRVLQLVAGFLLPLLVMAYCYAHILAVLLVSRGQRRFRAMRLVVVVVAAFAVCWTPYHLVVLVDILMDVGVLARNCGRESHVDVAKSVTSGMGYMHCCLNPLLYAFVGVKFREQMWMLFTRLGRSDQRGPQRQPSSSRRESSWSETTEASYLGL
From the text: [^18F]1 was further evaluated for reliability as a CXCR3 radiotracer using mouse models of atherosclerosis. For this purpose, we tested [^18F]1 in ApoE KO mice, a widely used murine model of atherosclerosis. Six-week-old ApoE KO male mice (N = 6) and C57BL/6 male control mice (i.e., a background strain of ApoE KO mouse, ApoE-wildtype control; N = 6) were purchased from Jackson Laboratory (Bar Harbor, ME). The ApoE KO mice were placed on a high-fat diet over 12 weeks to accelerate atherosclerosis development. […] At 12 weeks, PET/computed tomography (CT) studies were performed using both mice groups. Dynamic PET scans (90 min acquisition) were performed beginning 5 min after the intravenous injection of [^18F]1 followed by a ~ 10 min CT scan. Usually, one week after the baseline PET/CT scan, the corresponding blocking PET/CT scan was performed. This time, 1·HCl salt (5 mg/kg) was used as a blocking agent and intravenously injected 5 min before the radiotracer injection.
All animal studies were performed at the VA Biomolecular Imaging Center (VA BIC) at the Harry S. Truman Memorial Veterans’ Hospital (Columbia, MO). Six-week-old ApoE KO male mice and C57BL/6 control male mice were purchased from Jackson Laboratory. All mice were housed in the controlled vivarium during the studies. All ApoE KO mice were fed with high-fat chow that contained 42% fat, 34% of that contained unsaturated fat (TD.88137, Envigo, Indianapolis, IN), one week after the arrival and continued the feeding until the end of the study. The first PET/CT scans were performed 12 weeks after initiating the high-fat diet, and the second PET/CT scans that used 1·HCl as a blocking agent were performed at least one week after the first PET/CT scans. Meanwhile, C57BL/6 control mice were fed with normal chow over the same schedule to match with ApoE KO mice.
Maximum intensity micro-PET images were obtained on a Siemens INVEON small-animal PET/CT scanner (Siemens Medical Solutions USA, Inc., Malvern, PA). […] The micro-PET data was analyzed using Siemens Inveon Research Workplace, General Analysis software. […]

[1] = Stability of formulated radiotracer (HPLC); assay type: physicochemical; conditions: formulated in 10% EtOH/0.9% saline containing 0.5% sodium ascorbate
Protocol: The addition of AcOH and the high temperature was necessary for an improved RCC. A usual C18 SPE workup followed by semi-preparative reverse phase HPLC purification afforded [^18F]1 in RCY of 13 ± 2% (n = 10) at the end of synthesis (EOS). The semi-preparative HPLC chromatograms of [^18F]1 is shown in Additional file 1: Fig. S1(a). The HPLC purification was performed using a Phenomenex Gemini C18 Semi-preparative column (5 µm, 250 × 10 mm) equipped with UV (254 nm) and radioactivity detectors by eluting with an isocratic mobile phase composed of 65% MeCN, 5% MeOH, 30% water, and 0.1% triethylamine (NEt3) at a flow rate of 5 mL/min. The radioactive [^18F]1 was collected between 16 and 17 min and was well-separated from the rest of the UV and radioactivity peaks. After the purification, the collected product was formulated in 10% EtOH/0.9% saline containing 0.5% sodium ascorbate. The total radiosynthesis time was 100 min at the EOS. The final reformulated aliquot was further characterized by HPLC analysis using a Phenomenex Gemini C18 analytical column (5 µm, 250 × 4.6 mm) equipped with UV and radioactivity detectors by eluting with the same HPLC solvent at a flow rate of 1 mL/min. The radioactive peak was eluted between 15 and 17 min. […]

[2] = 1·HCl 5 mg/kg i.v. 5 min before tracer

blocking effect in BAT (from AUC of TACs) (CXCR3; [2]): 23.4% | blocking effect in atherosclerotic abdominal aorta (from AUC of TACs) (CXCR3; [2]): 16.9% | standard uptake value (SUV), BAT region (CXCR3; blocking study with 1·HCl 5 mg/kg i.v., stated for both groups): 1.2–1.5 | time radiotracer is stable [1]: more than 10 h
Compound: CC[C@H]1CN(c2ncc(-c3nnco3)cc2Cl)CCN1C1CCN(Cc2ccc(Cl)cc2[18F])CC1 [[^18F]1]
